Results from PubChem BioAssay (NCI).
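Method: 48-hour compound exposure of cells in 96-well plates, five concentrations, linear interpolation of endpoints. TGI is the concentration that stops growth completely.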

Legend:
Test in all cases: inhibition of tumour cell growth, NCI panel, 48 h
[1] = tested on: PC-3 prostate
[2] = tested on: LOX IMVI melanoma
[3] = tested on: SW-620 colon
[4] = tested on: NCI-H226 lung
[5] = tested on: HCC-2998 colon
[6] = tested on: SK-MEL-2 melanoma
[7] = tested on: NCI-H522 lung
[8] = tested on: MOLT-4 leukemia
[9] = tested on: 786-0 renal
[10] = tested on: M14 melanoma
[11] = tested on: HT29 colon
[12] = tested on: UACC-62 melanoma
[13] = tested on: SR leukemia
[14] = tested on: SK-OV-3 ovarian
[15] = tested on: TK-10 renal
[16] = tested on: SK-MEL-28 melanoma
[17] = tested on: UACC-257 melanoma
[18] = tested on: SF-295 CNS
[19] = tested on: MCF7 breast
[20] = tested on: A549 NSCLC
[21] = tested on: CAKI-1 renal
[22] = tested on: SF-539 CNS
[23] = tested on: MDA-N
[24] = tested on: HOP-92 NSCLC
[25] = tested on: OVCAR-4 ovarian
[26] = tested on: MALME-3M melanoma
[27] = tested on: A498 renal
[28] = tested on: HOP-62 NSCLC
[29] = tested on: OVCAR-5 ovarian
[30] = tested on: COLO 205 colon
[31] = tested on: T-47D breast
[32] = tested on: HCT-15 colon
[33] = tested on: CCRF-CEM leukemia
[34] = tested on: SN12C renal
[35] = tested on: NCI/ADR-RES ovarian
[36] = tested on: HCT-116 colon
[37] = tested on: SNB-75 CNS
[38] = tested on: UO-31 renal
[39] = tested on: NCI-H460 lung
[40] = tested on: RPMI-8226 leukemia
[41] = tested on: SNB-19 CNS
[42] = tested on: K-562 leukemia
[43] = tested on: IGROV1 ovarian
[44] = tested on: KM12 colon
[45] = tested on: DU-145 prostate
[46] = tested on: OVCAR-3 ovarian
[47] = tested on: HS 578T breast
[48] = tested on: ACHN renal
[49] = tested on: BT-549 breast
[50] = tested on: MDA-MB-435
[51] = tested on: EKVX NSCLC
[52] = tested on: RXF 393 renal
[53] = tested on: MDA-MB-231 breast
[54] = tested on: SF-268 CNS
[55] = tested on: U251 CNS
[56] = tested on: OVCAR-8 ovarian
[57] = tested on: HL-60(TB) leukemia
[58] = tested on: NCI-H23 lung
[59] = tested on: SK-MEL-5 melanoma

Compound `CCCCCCCCCCCCCCCCCCOCC(O)COP(=O)(O)OCC1OC(n2cc(F)c(=O)[nH]c2=O)CC1O` (centres undefined) has a TGI [1] of 18.8 µM, a TGI [2] of 15.1 µM and a TGI [3] of over 61.4 µM. The TGI [4] was over 53.8 µM, the TGI [5] was 2.92 µM and the TGI [6] was 43.2 µM. It also gave a TGI [7] of 27.9 µM, a TGI [8] of 21.6 µM and a TGI [9] of 17.8 µM. The TGI [10] was 15.5 µM, the TGI [11] was 23.6 µM and the TGI [12] was 9.7 µM. For the same compound, the TGI [13] was 22.6 µM, the TGI [14] was 44.8 µM and the TGI [15] was 24.6 µM. The TGI [16] was 28.8 µM, the TGI [17] was 32.1 µM and the TGI [18] was 19 µM. It also gave a TGI [19] of 48.3 µM, a TGI [20] of 25.9 µM and a TGI [21] of 26.8 µM. For the same compound, the TGI [22] was 12.4 µM, the TGI [23] was 28.2 µM and the TGI [24] was 24.2 µM. For the same compound, the TGI [25] was 32.2 µM, the TGI [26] was 33.9 µM and the TGI [27] was over 56 µM. It also gave a TGI [28] of 4.88 µM, a TGI [29] of 26.3 µM and a TGI [30] of 21.9 µM. It also gave a TGI [31] of 38.8 µM, a TGI [32] of 23.7 µM and a TGI [33] of 16.5 µM. For the same compound, the TGI [34] was 27.9 µM, the TGI [35] was 22 µM and the TGI [36] was 19.6 µM. It also gave a TGI [37] of 27.8 µM, a TGI [38] of 19.6 µM and a TGI [39] of 21.1 µM. The TGI [40] was 22.5 µM, the TGI [41] was 25.3 µM and the TGI [42] was 32.1 µM. The TGI [43] was 26.8 µM, the TGI [44] was 51 µM and the TGI [45] was 23.5 µM. It also gave a TGI [46] of 46.7 µM, a TGI [47] of 23.5 µM and a TGI [48] of over 41.6 µM. It also gave a TGI [49] of 27.3 µM, a TGI [50] of over 52.1 µM and a TGI [51] of over 74.2 µM. For the same compound, the TGI [52] was 29 µM, the TGI [53] was 36.1 µM and the TGI [54] was 36.5 µM. For the same compound, the TGI [55] was 22.4 µM, the TGI [56] was 18.9 µM and the TGI [57] was 25.1 µM. The TGI [58] was 16.9 µM and the TGI [59] was 24.1 µM.
